Reference: patent US20090191193A1, “Aryl Vinyl Sulfides, Sulfones, Sulfoxides and Sulfonamides, Derivatives Thereof and Therapeutic Uses Thereof” (TEMPLE UNIVERSITY-OF THE COMMONWEALTH SYSTEM OF HIGHER …, priority 2006, published 2009)

Experiments:
BT20 (breast carcinoma) = experiment: Effect on tumor cell lines, viable cell count by trypan blue exclusion (Latham et al.): BT20; type: cell-based; details: Homo sapiens, BT-20, BT20 breast carcinoma cells, viable cell count 96 hours after treatment
Experimental: (§1) The effect of the compounds of the invention on tumor cells was determined by the assay described by Latham et al., Oncogene 12:827-837 (1996). Tumor cells DU145 (prostate cancer), K562 (chronic myelogenous leukaemia), BT20 (breast carcinoma), H157 (non small cell lung carcinoma), or DLD1 (colon carcinoma) were plated in 6-well dishes at a cell density of 1.0×10^5 cells per 35-mm^2 well. The plated cells were treated 24 hours later with a compound of the invention dissolved in DMSO at multiple concentrations ranging from 100 nM to 10 μM. The total number of viable cells was determined 96 hours later by trypsinizing the wells and counting the number of viable cells, as determined by trypan blue exclusion, using a hemacytometer. Normal HFL cells were treated with the same compounds under the same conditions of concentration and time.

[1] = tested on: H157 (non small cell lung carcinoma); experiment: Effect on tumor cell lines, viable cell count by trypan blue exclusion (Latham et al.): H157; type: cell-based; details: Homo sapiens, NCI-H157, H157 non small cell lung carcinoma cells, viable cell count 96 hours after treatment
Experimental: as §1

DLD1 (colon carcinoma) = experiment: Effect on tumor cell lines, viable cell count by trypan blue exclusion (Latham et al.): DLD1; type: cell-based; details: Homo sapiens, DLD-1, DLD1 colon carcinoma cells, viable cell count 96 hours after treatment
Experimental: as §1

DU145 (prostate cancer) = experiment: Effect on tumor cell lines, viable cell count by trypan blue exclusion (Latham et al.): DU145; type: cell-based; details: Homo sapiens, DU-145, 96 h, DU145 prostate cancer cells, viable cell count 96 hours after treatment

Compound: COc1ccc(S(=O)(=O)/C(=C/c2ccc([N+](=O)[O-])cc2)C(N)=O)cc1 [Example 184]
- melting point: 172 to 174 °C
- IC50 (BT20 (breast carcinoma)): > 20 µM
- IC50 [1]: > 20 µM
- IC50 (DLD1 (colon carcinoma)): > 20 µM
- IC50 (DU145 (prostate cancer)): > 20 µM
